According to ChEMBL document CHEMBL2331487, “Synthesis and antiplasmodial and antimycobacterial evaluation of new nitroimidazole and nitroimidazooxazine derivatives” (ACS Med Chem Lett, 2013):
In brackets after ≈: the same amount, converted by molar mass.

Key:
[1] = system: Mycobacterium tuberculosis; assay: Antimycobacterial activity Mycobacterium tuberculosis H37Rv assessed as growth inhibition measured at day 7 by broth microdilution method; assay type: functional; conditions: 168 h
[2] = Selectivity index, ratio of IC50 for rat L6 cells to IC50 for Plasmodium falciparum K1 by [3H] hypoxanthine uptake inhibition assay; assay type: toxicity, cell-based; conditions: rat L6 cells versus Plasmodium falciparum K1, read-out: Ratio IC50
Plasmodium falciparum = assay: Antimalarial activity against Plasmodium falciparum K1 assessed as inhibition of [3H] hypoxanthine uptake by liquid scintillation counting; assay type: functional, organism-based
L6 = assay: Cytotoxicity against rat L6 cells after 72 hrs by fluorometric analysis; assay type: cell-based; conditions: L6, 72 h

Compound	MIC99 [1]	selectivity ratio [2]	IC50 (Plasmodium falciparum)	IC50 (L6)
O=[N+]([O-])c1cn2c(n1)OC[C@@H](OCCCNc1ccnc3cc(Cl)ccc13)C2	1.25 µM (≈ 0.505 µg/mL)	12.8	10.5 µM	134 µM
CN[C@@H]1[C@H](O[C@H]2[C@H](O[C@H]3[C@H](O)[C@@H](O)[C@H](N=C(N)N)[C@@H](O)[C@@H]3N=C(N)N)O[C@@H](C)[C@]2(O)C=O)O[C@@H](CO)[C@H](O)[C@H]1O [STREPTOMYCIN]	0.27 µM (≈ 0.157 µg/mL)			
COc1cc(NC(C)CCCNC(c2cccc(CO[C@@H]3COc4nc([N+](=O)[O-])cn4C3)c2)c2nnnn2C(C)(C)C)c2ncccc2c1 (some centres undefined)	5 µM (≈ 3.35 µg/mL)	145	0.985 µM	143 µM
CCN(CC)C(c1ccc(CO[C@@H]2COc3nc([N+](=O)[O-])cn3C2)cc1)c1nnnn1C(C)(C)C (some centres undefined)	0.313 µM (≈ 0.152 µg/mL)	14.2	7.95 µM	113 µM
O=Cc1cccc(CO[C@@H]2COc3nc([N+](=O)[O-])cn3C2)c1	0.625 µM (≈ 0.19 µg/mL)	0.54	62.6 µM	34.3 µM
CC(C)(C)n1nnnc1C(NCCNc1ccnc2cc(Cl)ccc12)c1ccc(CO[C@@H]2COc3nc([N+](=O)[O-])cn3C2)cc1 (some centres undefined)	0.313 µM (≈ 0.198 µg/mL)	246	0.1 µM	24.6 µM
O=Cc1ccc(CO[C@@H]2COc3nc([N+](=O)[O-])cn3C2)cc1	0.25 µM (≈ 0.0758 µg/mL)			
CC(C)(C)n1nnnc1C(NCCCNc1ccnc2cc(Cl)ccc12)c1ccc(CO[C@@H]2COc3nc([N+](=O)[O-])cn3C2)cc1 (some centres undefined)		85	0.485 µM	41.5 µM
NCCNc1ccnc2cc(Cl)ccc12	> 160 µM	71.2	0.298 µM	21.2 µM
COc1cc(NC(C)CCCNC(c2ccc(CO[C@@H]3COc4nc([N+](=O)[O-])cn4C3)cc2)c2nnnn2C(C)(C)C)c2ncccc2c1 (some centres undefined)	0.625 µM (≈ 0.419 µg/mL)	37	2.04 µM	75.9 µM
CC(C)(C)n1nnnc1C(NCCCCNc1ccnc2cc(Cl)ccc12)c1ccc(CO[C@@H]2COc3nc([N+](=O)[O-])cn3C2)cc1 (some centres undefined)	0.625 µM (≈ 0.413 µg/mL)	175	0.164 µM	29.3 µM
CN(CCO)CCCNc1ccnc2cc(Cl)ccc12	> 160 µM	63	0.391 µM	24.8 µM
CCN(CC)CCCC(C)Nc1ccnc2cc(Cl)ccc12 (centres undefined) [CHLOROQUINE]	> 160 µM			
CN(C)C(c1ccc(CO[C@@H]2COc3nc([N+](=O)[O-])cn3C2)cc1)c1nnnn1C(C)(C)C (some centres undefined)	0.625 µM (≈ 0.285 µg/mL)	11.2	15.8 µM	177 µM
O=[N+]([O-])c1cn2c(n1)OC[C@@H](O)C2	40 µM (≈ 7.41 µg/mL)		> 270 µM	331 µM
COc1cc([C@@H]2c3cc4c(cc3[C@H](O)[C@H]3COC(=O)[C@H]23)OCO4)cc(OC)c1OC [PODOFILOX]				0.0193 µM
CN(CCO)CCNc1ccnc2cc(Cl)ccc12	> 160 µM	995	0.078 µM	77.6 µM
CC(C)(C)n1nnnc1C(c1ccc(CO[C@@H]2COc3nc([N+](=O)[O-])cn3C2)cc1)N1CCCC1 (some centres undefined)	0.313 µM (≈ 0.151 µg/mL)	8.65	8.7 µM	75.2 µM
COc1cc(NC(C)CCCN)c2ncccc2c1 (centres undefined) [PRIMAQUINE]	80 µM (≈ 20.7 µg/mL)		0.643 µM	
NC[C@H]1O[C@H](O[C@H]2[C@H](O)[C@@H](O[C@H]3O[C@H](CO)[C@@H](O)[C@H](N)[C@H]3O)[C@H](N)C[C@@H]2N)[C@H](O)[C@@H](O)[C@@H]1O [KANAMYCIN]	5.4 µM (≈ 2.62 µg/mL)			
OCCCNc1ccnc2cc(Cl)ccc12	> 160 µM	164	1.09 µM	178 µM
OCCNc1ccnc2cc(Cl)ccc12	> 160 µM	159	1.47 µM	233 µM
